# Measured values taken from US20240415920A1, “PEPTIDE HAVING ACTIVITY OF PREVENTING HAIR LOSS OR PROMOTING HAIR GROWTH, AND USE THEREOF” (CAREGEN CO., LTD., priority 2021, published 2024).
# How the values were obtained:
# Assay type in all cases: cell-based, human
# HHFDPC = test: Proliferation of dermal papilla cells (MTT, absorbance at 540 nm); conditions: 72 hours, FIG. 1
# Procedure: While culturing human hair follicle dermal dermal papilla cells (HHFDPC), the absorbance was measured after treatment with the peptide of the present invention to confirm whether there was an effect of promoting the proliferation of the HHFDPC dermal papilla cells.
# Specifically, HHFDPC (Sciencell, USA) was seeded at 4λ10^3 cells/well in a 96-well culture plate, cultured in MSC complete medium stem (mesenchymal cell complete media, Sciencell, USA) for 24 hours, and then the medium was replaced with serum free MSC complete medium and cultured for another 24 hours. Then, the HHFDPC was treated with the peptide from Preparation Example consisting of amino acid sequence of SEQ ID NO: 1 at concentrations of 10 nM, 100 nM, and 1 μM, respectively, and cultured at 37° C. for 72 hours. As a positive control, minoxidil was treated at a concentration of 1 μM, and as a negative control, HHFDPC without any treatment was used. Then, 10 μl of 5 mg/mL MTT solution was added and cultured in a 37° C. CO2 incubator for 4 hours to stain the cells. After removing the medium, the cells were treated with 100 μl of DMSO and shaken for 10 minutes, and the number of HHFDPC cells was confirmed by measuring absorbance at a wavelength of 540 nm using a spectrophotometer.
# p-AKT = test: Western blotting of phosphorylated AKT in HHFDPC; conditions: peptide 10 nM, 100 nM, 1 μM, 24 hours, FIG. 2
# Source text: (§1) In the HHFDPC treated with the peptide of the present invention, changes in related factors that affect cell proliferation or differentiation were confirmed to determine whether the peptide of the present invention could promote proliferation and differentiation of HHFDPC by increasing them.
# (§2) First, phosphorylated forms of AKT and ERK, which act as signaling molecules related to the proliferation of HHFDPC, were confirmed through Western blotting. Specifically, HHFDPC as in [Experiment Example 1-1] above was seeded at 4λ10^5 cells/well in a 6-well culture plate, cultured in MSC complete medium (mesenchymal stem cell complete media) for 24 hours, and then the medium was replaced with serum free MSC complete medium and cultured for another 24 hours. Then, the HHFDPC was treated with the peptide of SEQ ID NO: 1 prepared in the Preparation Example at concentrations of 10 nM, 100 nM, and 1 μM, respectively, and cultured at 37° C. for 24 hours. As a positive control, minoxidil was treated at a concentration of 1 μM, and as a negative control, HHFDPC without any treatment was used. Then, Western blotting was performed to detect phosphorylated AKT and phosphorylated ERK. […] After washing again with 0.1% PBS-T (0.1% Tween-20 in PBS) three times for 15 minutes each, p-AKT and p-ERK were detected by treatment with ECL solution (GE Healthcare, USA).
# p-ERK = test: Western blotting of phosphorylated ERK in HHFDPC; conditions: peptide 10 nM, 100 nM, 1 μM, 24 hours, FIG. 2
# Source text: as §1, §2
# β-catenin = test: Western blotting of β-catenin moved into the nucleus of HHFDPC; conditions: peptide 10 nM, 100 nM, 1 μM, 24 hours, FIG. 3
# Procedure: In addition, in addition to p-AKT and p-ERK, in order to confirm the activation of β-catenin, which is known to affect cell proliferation and differentiation, whether β-catenin moved into the nucleus was confirmed through Western blotting. Specifically, the HHFDPC as in [Experiment Example 1-1] was seeded in a 6-well culture plate at an amount of 4λ10^5 cells/well, cultured in MSC complete medium (mesenchymal stem cell complete media) for 24 hours. Next, the medium was replaced with serum free MSC complete medium and cultured again for 24 hours. Then, the HHFDPC was treated with the peptide of SEQ ID NO: 1 prepared in the Preparation Example at concentrations of 10 nM, 100 nM, and 1 μM, respectively, and cultured at 37° C. for 24 hours. As a positive control, minoxidil was treated at a concentration of 1 μM, and as a negative control, HHFDPC without any treatment was used. After washing with PBS, proteins in the nucleus were isolated using a nuclear protein extraction kit (Thermo scientific, USA). After electrophoresis using a 10% SDS-PAGE gel, it was transferred to a PVDF membrane and blocked using 5% skim milk at room temperature for 30 minutes. […] After washing again with 0.1% PBS-T (0.1% Tween-20 in PBS) three times for 15 minutes each, β-catenin was detected by treatment with ECL solution (GE Healthcare, USA).
# LEF-1 = test: RT-PCR of LEF-1 expression in HHFDPC; conditions: peptide 10 nM, 100 nM, 1 μM, 24 hours, FIG. 4
# Procedure: (§3) Furthermore, in order to determine whether the β-catenin moves to the nucleus and is s activated to affect cell proliferation and differentiation, whether the expression of LEF-1 and cyclin D1 (cyclin D1), which act as downstream factors, increases with β-catenin activation was confirmed through RT-PCR. Specifically, in the same manner as the previous Western blotting experiment, HHFDPC cells were cultured, treated with the peptides of the Preparation Example of the present invention at concentrations of 10 nM, 100 nM, and 1 μM, respectively, and cultured at 37° C. for 24 hours. After washing the cells with PBS, RNA was isolated by treating them with 300 […] of easy blue (intron, Korea). Then, cDNA was synthesized using a cDNA synthesis kit (enzynomics, Korea) by quantifying it with nano drop, and PCR was performed using primers for LEF-1 and cyclin D1 (base sequences of the primers are listed in Table 2) and PCR premix (enzynomics, Korea). Electrophoresis was performed on a 1.5% agarose gel, and then the mRNA of LEF-1 and cyclin D1 was detected using a band analysis system (Bio-Rad gel image system).
# cyclin D1 = test: RT-PCR of cyclin D1 expression in HHFDPC; conditions: peptide 10 nM, 100 nM, 1 μM, 24 hours, FIG. 4
# Procedure: as §3
# DKK-1 protein = test: Western blotting of DKK-1 protein in DHT-treated HHFDPC; conditions: HHFDPC with DHT 100 nM, peptide 10 nM, 1 μM, 24 hours, FIG. 5
# Procedure: DKK-1 protein (dickkopf-related protein 1) is a hair loss-related protein known to be highly expressed in individuals with hair loss, especially male pattern hair loss, and its expression is known to be promoted by hormones such as DHT (Dihydrotestosterone). Accordingly, the expression of DKK-1 protein was induced by treating HHFDPC cells with DHT together with the peptide according to the Preparation Example of the present invention, and then the expression level of DKK-1 was measured through Western blotting to determine whether there was an effect of suppressing the expression of DKK-1 protein.
# Specifically, HHFDPC as in [Experiment Example 1-1] was seeded in a 6-well culture plate at 4×10^5 cells/well and then cultured in MSC complete medium (mesenchymal stem cell complete media) for 24 hours. Next, the medium was replaced with serum free MSC complete medium and cultured again for 24 hours. In addition, the HHFDPC was treated with the peptide of SEQ ID NO: 1 prepared in Preparation Example at concentrations of 10 nM, 100 nM, and 1 μM, respectively, and at this time, DHT, an expression inducer of DKK-1 protein, was simultaneously treated at a concentration of 100 nM and then cultured at 37° C. for 24 hours. […] After washing again with 0.1% PBS-T (0.1% Tween-20 in PBS) three times for 15 minutes each, DKK-1 protein was detected by treatment with ECL solution (GE Healthcare, USA).
# Ha3-II = test: RT-PCR of Ha3-II expression in HHORSC; conditions: peptide 10 nM, 100 nM, 1 μM, 72 hours, FIG. 6
# Procedure: (§4) Using the peptide of the present invention consisting of the amino acid sequence of SEQ ID NO: 1 prepared according to Preparation Example above, it was confirmed whether it promotes the activity of outer root sheath cells, a type of cell that forms hair follicles.
# (§5) Specifically, HHORSC (human hair outer root sheath cell, Sciencell, USA) was seeded in a 6-well culture plate at 4×10^5 cells/well and then cultured in MSC complete medium (mesenchymal stem cell complete media) for 24 hours. Next, the medium was replaced with serum free MSC complete medium and cultured again for 24 hours. Then, the HHORSC was treated with the peptide of Preparation Example consisting of amino acid sequence of SEQ ID NO: 1 at concentrations of 10 nM, 100 nM, and 1 μM, respectively, and cultured at 37° C. for 72 hours. […] Then, CDNA was synthesized using a cDNA synthesis kit (enzynomics, Korea) by quantification using nano drop, and PCR was performed using primers for Ha3-II, Keratin 5, Keratin 14, and Keratin 19 (the base sequences of each primer are shown in Table 3 below) and PCR premix (enzynomics, Korea). Electrophoresis was performed on a 1.5% agarose gel, and the mRNAs of Ha3-II, Keratin 5, Keratin 14, and Keratin 19 were detected using a band analysis system (Bio-Rad gel image system).
# Keratin 5 = test: RT-PCR of Keratin 5 expression in HHORSC; conditions: peptide 10 nM, 100 nM, 1 μM, 72 hours, FIG. 6
# Procedure: as §4, §5
# Keratin 14 = test: RT-PCR of Keratin 14 expression in HHORSC; conditions: peptide 10 nM, 100 nM, 1 μM, 72 hours, FIG. 6
# Procedure: as §4, §5
# Keratin 19 = test: RT-PCR of Keratin 19 expression in HHORSC; conditions: peptide 10 nM, 100 nM, 1 μM, 72 hours, FIG. 6
# Procedure: as §4, §5
# MSX2 = test: RT-PCR of MSX2 expression in HHGMC; conditions: peptide 10 nM, 100 nM, 1 μM, 72 hours, FIG. 7
# Procedure: as §4, with “promoted the expression of transcription factors related to” for “promotes”, “germinal matrix” for “outer root sheath”, “hair.” for “hair follicles.”
# Specifically, HHGMC (human hair germinal matrix cell, Sciencell, USA) was seeded in a 6-well culture plate at 4×10^5 cells/well and then cultured in MSC complete medium (mesenchymal stem cell complete media) for 24 hours. Next, the medium was replaced with serum free MSC complete medium and cultured again for 24 hours. Then, the HHGMC was treated with the peptide of SEQ ID NO: 1 prepared in the Preparation Example at concentrations of 10 nM, 100 nM, and 1 μM, respectively, and cultured at 37° C. for 72 hours. As a positive control, EGF was treated at a concentration of 50 nM, and as a negative control, HHGMC without any treatment was used. […] Next, cDNA was synthesized using a cDNA synthesis kit (enzynomics, Korea) by quantification using nano drop, and PCR was performed using primers for MSX2 consisting of base sequences according to Table 4 below and PCR premix (enzynomics, Korea). Electrophoresis was performed on a 1.5% agarose gel, and MSX2 mRNA was detected using a band analysis system (Bio-Rad gel image system).
sequence,measurement,setting,value
GCGLFVAAC [peptide of the present invention],absorbance (cell proliferation) compared to the untreated control group,"HHFDPC; peptide 10 nM, 100 nM, 1 μM",the absorbance was measured to be higher
same,proliferation promotion effect compared to the positive control group (minoxidil 1 μM),HHFDPC; peptide 1 μM,showed a better proliferation promotion effect than the positive control group
same,phosphorylation of AKT (p-AKT) compared to the control group not treated with the peptide,p-AKT,phosphorylation was found to be increased
same,phosphorylation of ERK (p-ERK) compared to the control group not treated with the peptide,p-ERK,phosphorylation was found to be increased
same,β-catenin migration to the nucleus compared to the control group not treated with the peptide,"β-catenin; HHFDPC nuclear protein, Western blotting",migration due to activation of β-catenin increased
same,concentration dependence of β-catenin activation,β-catenin; HHFDPC,further promoted depending on the concentration
same,LEF-1 mRNA amount compared to the control group without any treatment,LEF-1,the amount of mRNA increased further
same,cyclin D1 mRNA amount compared to the control group without any treatment,cyclin D1,the amount of mRNA increased further
same,concentration dependence of the DKK-1 expression level,DKK-1 protein,decreased depending on the concentration
same,amount of DKK-1 protein compared to the negative control group (DHT only),DKK-1 protein; Western blotting,found to be reduced
same,Ha3-II mRNA amount compared to the control group without treatment,Ha3-II,the amount of mRNA increased further
same,Keratin 5 mRNA amount compared to the control group without treatment,Keratin 5,the amount of mRNA increased further
same,Keratin 14 mRNA amount compared to the control group without treatment,Keratin 14,the amount of mRNA increased further
same,Keratin 19 mRNA amount compared to the control group without treatment,Keratin 19,the amount of mRNA increased further
same,MSX2 mRNA amount compared to the untreated control group,MSX2,the amount of mRNA increased further
